Assay results reported in patent US10513731B2, “Modified nucleotides” (Illumina Cambridge Limited, priority 2002, dated 2019).

How the values were obtained:
[1] = system: DNA polymerase; conditions: eight termination assays, each with a different DNA polymerase; cited from earlier work
[2] = target: T1, polymerase (Thermococcus sp. 9° N exo −Y409V A485L) (Thermococcus sp., UniProt Q56366, A485L/D141A/E143A/Y409V); experiment: Multiple cycles of incorporation, deblocking and capping on hairpin DNA attached to streptavidin beads, analysed by gel; assay type: biochemical; conditions: 2 μM FFN, 100 nM polymerase, 65° C. 10-15 minutes; deblocking with TCEP 0.1M, 65° C. 15 minutes
T1 construct: purchased New England Biolabs
T1 sequence (Q56366 whole entry D141A/E143A/Y409V/A485L): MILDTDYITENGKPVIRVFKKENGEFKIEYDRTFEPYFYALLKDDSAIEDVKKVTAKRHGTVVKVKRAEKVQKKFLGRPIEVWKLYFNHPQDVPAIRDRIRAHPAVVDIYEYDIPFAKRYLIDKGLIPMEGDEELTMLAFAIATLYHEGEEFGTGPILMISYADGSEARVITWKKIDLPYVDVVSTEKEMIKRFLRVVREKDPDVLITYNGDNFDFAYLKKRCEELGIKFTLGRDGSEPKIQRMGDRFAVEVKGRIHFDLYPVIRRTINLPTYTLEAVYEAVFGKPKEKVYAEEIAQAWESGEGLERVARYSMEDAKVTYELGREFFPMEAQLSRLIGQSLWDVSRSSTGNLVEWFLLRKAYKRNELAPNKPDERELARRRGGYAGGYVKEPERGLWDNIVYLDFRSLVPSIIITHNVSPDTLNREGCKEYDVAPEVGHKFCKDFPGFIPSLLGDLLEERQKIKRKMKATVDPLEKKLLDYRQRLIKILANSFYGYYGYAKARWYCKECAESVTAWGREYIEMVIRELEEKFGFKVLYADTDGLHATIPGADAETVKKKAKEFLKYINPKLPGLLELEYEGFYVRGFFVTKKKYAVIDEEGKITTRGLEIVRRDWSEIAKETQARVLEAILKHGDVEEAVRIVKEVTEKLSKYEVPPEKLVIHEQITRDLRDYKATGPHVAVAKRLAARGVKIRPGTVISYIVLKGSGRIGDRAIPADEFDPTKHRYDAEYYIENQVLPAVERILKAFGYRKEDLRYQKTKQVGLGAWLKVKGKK
Method: By attaching a hairpin DNA (covalently attached self complementary primer/template) to a streptavidin bead The reaction can be performed over multiple cycles as shown in FIGS. 5 and 6.
Remove the storage buffer and wash the beads 3 times with TE buffer (Tris-HCl pH 8, 10 mM and EDTA, 1 mM). Resuspend in B & W buffer (10 mM Tris-HCl pH 7.5, 1 mM EDTA and 2.0 M NaCl), add biotinylated ^32P labelled hairpin DNA with appropriate overhanging template sequence. Allow to stand at room temperature for 15 minutes. Remove buffer and wash beads 3 times TE buffer.
To a solution of Tris-HCl pH 8.8 50 mM, Tween-20 0.01%, MgSO4 4 mM, MnCl2 0.4 mM (except cycle 1, 0.2 mM), add 2 μM FFN and 100 nM polymerase. This solution is then added to the beads and mixed thoroughly and incubated at 65° C. for 10-15 minutes. The reaction mixture is removed and the beads washed 3 times with TE buffer.
Tris-(2-carboxyethyl)phosphines trisodium salt (TCEP) (0.1M) is added to the beads and mixed thoroughly. The mixture was then incubated at 65° C. for 15 minutes. The deblocking solution is removed and the beads washed 3 times with TE buffer. […]
The reaction products can be analysed by placing the bead solution in the well of a standard 12% polyacrylamide DNA sequencing gel in 40% formamide loading buffer. […]

[3] = target: T1, polymerase (Thermococcus sp. 9° N exo −Y409V A485L); experiment: Enzyme incorporation of 3′-blocked dNTPs on a P32-labelled DNA primer/template, followed by a chase with native nucleoside triphosphates; assay type: biochemical
Method: (§1) To a 100 nM DNA primer/template (primer previously labelled with P32 and T4 polynucleotide kinase) in Tris-HCl pH 8.8 50 mM, Tween-20 0.01%, and MgSO4 4 mM, add 2 μM compound 6 and 100 nM polymerase (Thermococcus sp. 9° N exo ^−Y409V A485L supplied by New England Biolabs). The template consists of a run of 10 adenine bases to show the effect of the block. The reaction is heated to 65 C for 10 mins. To show complete blocking, a chase is performed with the four native, unblocked nucleoside triphosphates.
as §1, with “compound 38” for “compound 6”

Row | SMILES | ability to terminate DNA synthesis [1] | cycles of incorporation [2] | incorporation of the blocked nucleotide ([3]; 2 μM compound, 100 nM polymerase, 100 nM primer/template, template with run of 10 adenine bases, 65 C for 10 mins) | block to further incorporation ([3]; chase with the four native, unblocked nucleoside triphosphates)
1 | C=CCO[C@H]1C[C@H](n2cnc3c(N)ncnc32)O[C@@H]1COP(=O)(O)OP(=O)(O)OP(=O)(O)O [3′-allyl dATP, 3′allyl deoxyriboadenosine 5′-triphosphate] | terminate DNA synthesis in a single termination assay, out of eight |  |  | 
2 | CCN1/C(=C/C=C/C2=[N+](CCCCCC(=O)NCCSSCCC(=O)NCC#Cc3cn(C4CC(OCN=[N+]=[N-])C(COP(=O)(O)OP(=O)(O)OP(=O)(O)O)O4)c(=O)[nH]c3=O)c3ccc(S(=O)(=O)[O-])cc3C2(C)C)C(C)(C)c2cc(S(=O)(=O)O)ccc21 (centres unmarked) [compound 6] |  | six | Quantitative incorporation | effective block to further incorporation
3 | CCN1/C(=C/C=C/C2=[N+](CCCCCC(=O)NCCSSCCC(=O)NCC#Cc3cn([C@H]4CC(OCN=[N+]=[N-])[C@@H](COP(=O)(O)OP(=O)(O)OP(=O)(O)O)O4)c4nc(N)[nH]c(=O)c34)c3ccc(S(=O)(=O)[O-])cc3C2(C)C)C(C)(C)c2cc(S(=O)(=O)O)ccc21 (some centres unmarked) [compound 24] |  | Two and two |  | 
